What was measured:
[1] = tested on: Porcine atria myofibrils (atrial myosin ATPase); experiment: Myofibril ATPase assay, porcine atria myofibrils; type: biochemical; settings: porcine atria myofibrils
Method in brief: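 Porcine atrial myofibrils were tested in a PK/LDH-coupled system where ADP from myosin ATPase drives NADH oxidation. Absorbance at 340 nm was read every 1.5-2 min for 75 min and slopes were normalized to vehicle wells. A 4-parameter logistic fit gave Y75 (25% inhibition) or Y125 (activation) concentrations.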

[2] = tested on: Rabbit Psoas myofibrils (skeletal myosin ATPase); experiment: Myofibril ATPase assay, rabbit psoas (skeletal) myofibrils; type: biochemical; settings: rabbit psoas myofibrils
Method in brief: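 ATPase activity of Triton-washed myofibrils was measured by PK/LDH coupling, following NADH loss at 340 nm every 1.5–2 min for 75 min in PIPES/Ca/EGTA buffer at pH 7.0. Slopes, normalized to vehicle (100%), were fitted to a 4-parameter logistic model. Values are Y75 (25% inhibition) or Y125 (activators).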

[3] = target: T1, Porcine ventricle myofibrils (ventricular myosin ATPase) (Sus scrofa, UniProt P79293); experiment: Myofibril ATPase assay, porcine ventricle myofibrils; type: biochemical, porcine (Yucatan minipigs); settings: porcine ventricle myofibrils
T1 construct: Myofibrils from porcine cardiac muscle was isolated from the left ventricle of Yucatan minipigs; tissue Exemplar Genetics; host or cells: left ventricle of Yucatan minipigs, myofibrils prepared in house
T1 sequence (P79293 whole entry): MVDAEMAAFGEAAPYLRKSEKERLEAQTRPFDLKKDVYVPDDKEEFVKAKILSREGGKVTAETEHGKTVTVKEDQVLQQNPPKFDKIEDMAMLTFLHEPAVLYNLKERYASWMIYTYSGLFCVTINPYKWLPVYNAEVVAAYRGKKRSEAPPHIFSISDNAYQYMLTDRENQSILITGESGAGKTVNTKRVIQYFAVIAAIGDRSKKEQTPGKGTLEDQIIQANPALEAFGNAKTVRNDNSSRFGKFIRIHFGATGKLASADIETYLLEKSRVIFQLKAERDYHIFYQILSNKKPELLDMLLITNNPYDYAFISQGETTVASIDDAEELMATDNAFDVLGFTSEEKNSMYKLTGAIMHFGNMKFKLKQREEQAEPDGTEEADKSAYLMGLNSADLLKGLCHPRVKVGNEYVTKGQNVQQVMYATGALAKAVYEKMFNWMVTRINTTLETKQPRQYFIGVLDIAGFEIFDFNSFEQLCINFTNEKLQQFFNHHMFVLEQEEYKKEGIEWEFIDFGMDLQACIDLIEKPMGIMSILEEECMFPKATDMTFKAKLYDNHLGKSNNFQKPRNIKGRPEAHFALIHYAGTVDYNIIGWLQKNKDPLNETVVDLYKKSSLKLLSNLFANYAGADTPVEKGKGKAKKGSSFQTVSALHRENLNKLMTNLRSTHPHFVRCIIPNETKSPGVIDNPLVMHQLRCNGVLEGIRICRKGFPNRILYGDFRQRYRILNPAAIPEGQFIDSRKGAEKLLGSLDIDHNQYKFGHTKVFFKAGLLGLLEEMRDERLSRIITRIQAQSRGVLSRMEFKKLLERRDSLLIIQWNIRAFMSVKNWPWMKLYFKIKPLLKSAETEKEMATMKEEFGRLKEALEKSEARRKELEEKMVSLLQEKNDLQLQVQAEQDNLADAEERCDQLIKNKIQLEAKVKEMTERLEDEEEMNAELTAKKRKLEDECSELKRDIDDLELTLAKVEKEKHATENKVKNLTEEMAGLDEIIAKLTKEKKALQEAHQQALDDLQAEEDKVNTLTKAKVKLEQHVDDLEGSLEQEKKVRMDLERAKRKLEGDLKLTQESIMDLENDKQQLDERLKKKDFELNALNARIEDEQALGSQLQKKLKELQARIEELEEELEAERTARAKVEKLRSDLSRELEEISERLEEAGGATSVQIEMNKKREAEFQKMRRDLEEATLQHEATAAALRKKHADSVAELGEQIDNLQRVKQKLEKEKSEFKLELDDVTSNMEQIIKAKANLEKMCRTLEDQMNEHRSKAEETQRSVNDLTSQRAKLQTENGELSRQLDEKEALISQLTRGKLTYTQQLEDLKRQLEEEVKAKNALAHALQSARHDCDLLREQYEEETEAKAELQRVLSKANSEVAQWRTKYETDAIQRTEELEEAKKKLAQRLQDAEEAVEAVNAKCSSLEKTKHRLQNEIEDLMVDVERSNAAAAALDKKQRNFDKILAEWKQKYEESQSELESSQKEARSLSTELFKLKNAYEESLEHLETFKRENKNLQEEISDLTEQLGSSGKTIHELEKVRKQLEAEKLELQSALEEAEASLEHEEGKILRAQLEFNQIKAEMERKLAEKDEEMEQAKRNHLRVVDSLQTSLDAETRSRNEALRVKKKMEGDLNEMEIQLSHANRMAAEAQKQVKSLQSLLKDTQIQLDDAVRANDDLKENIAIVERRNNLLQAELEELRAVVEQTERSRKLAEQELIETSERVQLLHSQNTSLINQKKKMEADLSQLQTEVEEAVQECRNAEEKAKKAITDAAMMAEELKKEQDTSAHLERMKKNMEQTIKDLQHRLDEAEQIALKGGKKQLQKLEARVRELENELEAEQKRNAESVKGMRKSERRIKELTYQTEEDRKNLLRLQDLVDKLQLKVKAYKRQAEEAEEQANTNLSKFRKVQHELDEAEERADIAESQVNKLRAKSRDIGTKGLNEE
Method in brief: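 Read-out: A340 kinetic, NADH consumption coupled to ADP via PK-LDH, 75 min. Yucatan minipig LV myofibrils, pCa buffer (PIPES/CaCl2/EGTA, pH 7.0). Linear-regression slope (mAU/min), vehicle = 100%, 4PL fit; Y75 or Y125 reported.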

[4] = ‡ Y125 value, not a Y75 value (125% activity relative to no compound)

Structure (SMILES)	Atrial EC25 ([1]; Y75 value (no ‡ mark)) [µM]	Skeletal EC25 ([2]; Y75 value (no ‡ mark)) [µM]	Ventricular EC25 ([3]; Y75 value (no ‡ mark)) [µM]	Skeletal EC25 [2, 4]	Ventricular EC25 [3, 4]	Atrial EC25 [1, 4]
Cc1c(C(F)(F)C(=O)N[C@H](C)c2cnc(C#N)cn2)c(=O)[nH]c2ccc(F)cc12 (single isomer, unassigned) [compound 2563]	0.15	0.12	0.54			
Cc1c(C(F)(F)C(=O)N[C@@H](C)c2cnc(C#N)cn2)c(=O)[nH]c2ccc(F)cc12 (single isomer, unassigned) [compound 2564]	0.51	0.49	0.89			
Cc1nc(C#N)cnc1[C@@H](C)NC(=O)C(F)(F)c1c(C)c2cc(F)ccc2[nH]c1=O (single isomer, unassigned) [compound 2567]	0.34	0.33	1.07			
Cc1nc(C#N)cnc1[C@H](C)NC(=O)C(F)(F)c1c(C)c2cc(F)ccc2[nH]c1=O (single isomer, unassigned) [compound 2568]	0.57	0.11	0.58			
Cc1c(C2(C(=O)N[C@H](C)c3cc(C#N)ccn3)CC2)c(=O)[nH]c2ccc(F)cc12 (single isomer, unassigned) [compound 2577]	19.55	100.00	100.00			
Cc1c(C2(C(=O)N[C@@H](C)c3cc(C#N)ccn3)CC2)c(=O)[nH]c2ccc(F)cc12 (single isomer, unassigned) [compound 2578]				100.00‡ μM	100.00‡ μM	100.00‡ μM
Cc1c(C2(C(=O)N[C@H](C)c3cccc(C#N)n3)CC2)c(=O)[nH]c2ccc(F)cc12 (single isomer, unassigned) [compound 2579]	100.00	100.00	100.00			
C[C@@H](NC(=O)C1(c2cc3c(F)c(F)ccc3[nH]c2=O)CC1)c1cc(C#N)ccn1 (single isomer, unassigned) [compound 2583]	4.31	100.00	100.00			
C[C@H](NC(=O)C1(c2cc3c(F)c(F)ccc3[nH]c2=O)CC1)c1cc(C#N)ccn1 (single isomer, unassigned) [compound 2584]	100.00			100.00‡ μM	100.00‡ μM	
Cc1c(C(F)(F)C(=O)N[C@H](C)c2cc(C#N)ccn2)c(=O)[nH]c2ccc(F)c(F)c12 (single isomer, unassigned) [compound 2585]	1.59	3.04	7.05			
Cc1c(C2(C(=O)N[C@H](C)c3ncc(C#N)cn3)CC2)c(=O)[nH]c2ccc(F)cc12 (single isomer, unassigned) [compound 2590]	0.43	1.30	3.41			
Cc1c(C2(C(=O)N[C@@H](C)c3ncc(C#N)cn3)CC2)c(=O)[nH]c2ccc(F)cc12 (single isomer, unassigned) [compound 2591]	1.52	100.00	18.78			
C[C@@H](NC(=O)C1(c2cc3c(F)c(F)ccc3[nH]c2=O)CC1)c1ncc(C#N)cc1F (single isomer, unassigned) [compound 2592]	0.13	3.54	0.47			
C[C@H](NC(=O)C1(c2cc3c(F)c(F)ccc3[nH]c2=O)CC1)c1ncc(C#N)cc1F (single isomer, unassigned) [compound 2593]	0.19	1.15	1.00			

Results, then the molecule that gave them:

Atrial EC25 ([1]; Y75 value (no ‡ mark)) [µM]	Skeletal EC25 ([2]; Y75 value (no ‡ mark)) [µM]	Ventricular EC25 ([3]; Y75 value (no ‡ mark)) [µM]	Skeletal EC25 [2, 4]	Ventricular EC25 [3, 4]	Atrial EC25 [1, 4]	Structure (SMILES)
100.00	100.00	100.00				C[C@@H](NC(=O)C(F)(F)c1cc2cc(F)ccc2[nH]c1=O)c1nccc(C#N)n1 (single isomer, unassigned) [compound 2559]
100.00		100.00	61.98‡ μM			C[C@H](NC(=O)C(F)(F)c1cc2cc(F)ccc2[nH]c1=O)c1nccc(C#N)n1 (single isomer, unassigned) [compound 2560]
0.23	0.25	0.79				C[C@@H](NC(=O)C(F)(F)c1cc2c(F)c(F)ccc2[nH]c1=O)c1nccc(C#N)n1 (single isomer, unassigned) [compound 2561]
0.15	0.28	0.75				C[C@H](NC(=O)C(F)(F)c1cc2c(F)c(F)ccc2[nH]c1=O)c1nccc(C#N)n1 (single isomer, unassigned) [compound 2562]
14.39	100.00	100.00				Cc1c(C(F)(F)C(=O)N[C@H](C)c2cccc(C#N)n2)c(=O)[nH]c2ccc(F)cc12 (single isomer, unassigned) [compound 2565]
100.00			100.00‡ μM	100.00‡ μM		Cc1c(C(F)(F)C(=O)N[C@@H](C)c2cccc(C#N)n2)c(=O)[nH]c2ccc(F)cc12 (single isomer, unassigned) [compound 2566]
40.54	100.00	8.06				C[C@@H](NC(=O)C(F)(F)c1cc2c(F)c(F)ccc2[nH]c1=O)c1cccc(C#N)n1 (single isomer, unassigned) [compound 2571]
100.00	100.00			100.00‡ μM		C[C@H](NC(=O)C(F)(F)c1cc2c(F)c(F)ccc2[nH]c1=O)c1cccc(C#N)n1 (single isomer, unassigned) [compound 2572]
100.00	100.00	100.00				C[C@H](NC(=O)C(F)(F)c1cc2cc(F)ccc2[nH]c1=O)c1cc(C#N)ccn1 (single isomer, unassigned) [compound 2574]
16.13	14.65	20.79				Cc1c(C(F)(F)C(=O)N[C@H](C)c2cc(C#N)ccn2)c(=O)[nH]c2ccc(F)cc12 (single isomer, unassigned) [compound 2575]
38.95	76.36	100.00				Cc1c(C(F)(F)C(=O)N[C@@H](C)c2cc(C#N)ccn2)c(=O)[nH]c2ccc(F)cc12 (single isomer, unassigned) [compound 2576]
100.00	100.00	100.00				C[C@@H](NC(=O)C(F)(F)c1cc2cc(F)ccc2[nH]c1=O)c1cccc(C#N)n1 (single isomer, unassigned) [compound 2581]
			75.10‡ μM	68.39‡ μM	100.00‡ μM	C[C@H](NC(=O)C(F)(F)c1cc2cc(F)ccc2[nH]c1=O)c1cccc(C#N)n1 (single isomer, unassigned) [compound 2582]
0.23	0.33	0.33				Cc1c(C(F)(F)C(=O)N[C@H](C)c2ncc(C#N)cn2)c(=O)[nH]c2ccc(F)cc12 (single isomer, unassigned) [compound 2594]
